This passage reports ΔTm results from ChEMBL document CHEMBL1145498, “A systematic interaction map of validated kinase inhibitors with Ser/Thr kinases” (Proc Natl Acad Sci U S A, 2007).

For test [1], the target named is Calcium/calmodulin-dependent protein kinase kinase 2 (Homo sapiens, UniProt Q96RR4).
Test [2] deals with Cyclin-dependent kinase 16 (Homo sapiens) (UniProt Q00536).
Test [3] concerns the target Serine/threonine-protein kinase 26 (Homo sapiens) (UniProt Q9P289).
The target of test [4] is T1, Calcium/calmodulin-dependent protein kinase type IV (Homo sapiens) (UniProt Q16566).
T1 sequence (whole entry): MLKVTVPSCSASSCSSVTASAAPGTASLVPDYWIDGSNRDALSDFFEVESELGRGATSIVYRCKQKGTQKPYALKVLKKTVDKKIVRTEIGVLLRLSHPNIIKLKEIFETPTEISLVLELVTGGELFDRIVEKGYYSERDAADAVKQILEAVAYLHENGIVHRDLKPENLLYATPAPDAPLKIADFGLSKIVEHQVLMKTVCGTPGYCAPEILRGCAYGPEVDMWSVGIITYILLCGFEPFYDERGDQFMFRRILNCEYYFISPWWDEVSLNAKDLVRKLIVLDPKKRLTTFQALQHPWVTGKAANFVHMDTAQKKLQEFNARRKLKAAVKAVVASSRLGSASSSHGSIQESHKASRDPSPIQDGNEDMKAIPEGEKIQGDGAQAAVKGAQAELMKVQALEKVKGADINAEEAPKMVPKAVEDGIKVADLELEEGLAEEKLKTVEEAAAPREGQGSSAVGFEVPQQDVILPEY

For test [5], the target named is T2, Mitogen-activated protein kinase kinase kinase 5 (Homo sapiens) (UniProt Q99683).
T2 sequence (whole entry): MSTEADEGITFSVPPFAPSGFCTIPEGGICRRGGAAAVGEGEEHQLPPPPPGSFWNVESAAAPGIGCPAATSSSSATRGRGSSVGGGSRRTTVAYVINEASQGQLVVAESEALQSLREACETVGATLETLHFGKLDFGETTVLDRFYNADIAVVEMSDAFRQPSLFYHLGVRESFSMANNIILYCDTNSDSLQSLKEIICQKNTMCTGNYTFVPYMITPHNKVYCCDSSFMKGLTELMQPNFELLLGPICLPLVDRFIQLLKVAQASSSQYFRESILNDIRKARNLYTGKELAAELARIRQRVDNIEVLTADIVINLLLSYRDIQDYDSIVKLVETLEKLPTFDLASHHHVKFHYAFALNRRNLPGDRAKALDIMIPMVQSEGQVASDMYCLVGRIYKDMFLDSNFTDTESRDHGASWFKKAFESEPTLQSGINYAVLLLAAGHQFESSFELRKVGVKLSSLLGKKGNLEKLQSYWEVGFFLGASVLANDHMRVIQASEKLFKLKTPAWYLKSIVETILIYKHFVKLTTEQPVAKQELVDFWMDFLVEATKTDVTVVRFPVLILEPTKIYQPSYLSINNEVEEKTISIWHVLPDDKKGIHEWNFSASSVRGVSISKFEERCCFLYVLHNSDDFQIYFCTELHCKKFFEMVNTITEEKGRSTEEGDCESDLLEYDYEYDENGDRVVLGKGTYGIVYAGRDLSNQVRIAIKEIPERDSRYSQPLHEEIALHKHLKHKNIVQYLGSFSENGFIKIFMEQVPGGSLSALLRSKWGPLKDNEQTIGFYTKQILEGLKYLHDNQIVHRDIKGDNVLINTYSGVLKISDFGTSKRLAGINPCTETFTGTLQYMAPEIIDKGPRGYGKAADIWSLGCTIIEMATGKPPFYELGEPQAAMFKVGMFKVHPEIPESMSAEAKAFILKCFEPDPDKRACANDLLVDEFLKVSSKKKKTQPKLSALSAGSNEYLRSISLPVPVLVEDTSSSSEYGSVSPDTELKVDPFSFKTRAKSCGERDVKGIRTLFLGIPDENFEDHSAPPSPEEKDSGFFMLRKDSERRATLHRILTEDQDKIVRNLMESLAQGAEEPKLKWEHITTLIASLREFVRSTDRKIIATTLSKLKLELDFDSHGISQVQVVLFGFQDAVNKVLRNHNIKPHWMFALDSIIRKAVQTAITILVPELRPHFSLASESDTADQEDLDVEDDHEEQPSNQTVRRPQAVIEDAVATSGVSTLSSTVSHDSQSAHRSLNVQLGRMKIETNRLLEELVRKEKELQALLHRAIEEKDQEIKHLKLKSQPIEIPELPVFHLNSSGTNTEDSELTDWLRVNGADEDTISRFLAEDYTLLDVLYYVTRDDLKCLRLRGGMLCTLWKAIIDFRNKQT

Test [6] has as its target T3, Myotonin-protein kinase (Homo sapiens) (UniProt Q09013).
T3 sequence (whole entry): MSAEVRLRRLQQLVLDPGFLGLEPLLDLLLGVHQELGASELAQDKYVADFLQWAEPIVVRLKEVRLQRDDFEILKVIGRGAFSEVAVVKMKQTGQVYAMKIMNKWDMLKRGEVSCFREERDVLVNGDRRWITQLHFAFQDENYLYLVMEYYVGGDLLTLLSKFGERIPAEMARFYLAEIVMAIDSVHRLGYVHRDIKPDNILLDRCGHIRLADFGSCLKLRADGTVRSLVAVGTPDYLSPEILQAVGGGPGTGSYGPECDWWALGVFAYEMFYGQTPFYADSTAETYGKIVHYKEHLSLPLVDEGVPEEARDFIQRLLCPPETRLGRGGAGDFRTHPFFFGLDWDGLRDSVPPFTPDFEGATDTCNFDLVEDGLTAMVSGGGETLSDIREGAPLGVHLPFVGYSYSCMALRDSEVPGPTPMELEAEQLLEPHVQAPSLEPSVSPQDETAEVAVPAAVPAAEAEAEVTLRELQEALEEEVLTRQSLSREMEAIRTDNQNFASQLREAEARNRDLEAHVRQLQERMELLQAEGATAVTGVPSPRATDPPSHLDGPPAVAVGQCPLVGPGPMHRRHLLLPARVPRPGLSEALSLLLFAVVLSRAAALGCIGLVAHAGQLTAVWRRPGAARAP

The target in test [7] is Casein kinase I isoform gamma-1 (Homo sapiens) (UniProt Q9HCP0).
In test [8] the target is Serine/threonine-protein kinase PAK 4 (Homo sapiens) (UniProt O96013).
The target in test [9] is Serine/threonine-protein kinase pim-3 (Homo sapiens) (UniProt Q86V86).
Test [10] addresses TRAF2 and NCK-interacting protein kinase (Homo sapiens) (UniProt Q9UKE5).
Test [11] addresses Ribosomal protein S6 kinase alpha-3 (Homo sapiens) (UniProt P51812).

Chain of Serine/threonine-protein kinase 26 (Homo sapiens) (Q9P289 2-416 limits assumed): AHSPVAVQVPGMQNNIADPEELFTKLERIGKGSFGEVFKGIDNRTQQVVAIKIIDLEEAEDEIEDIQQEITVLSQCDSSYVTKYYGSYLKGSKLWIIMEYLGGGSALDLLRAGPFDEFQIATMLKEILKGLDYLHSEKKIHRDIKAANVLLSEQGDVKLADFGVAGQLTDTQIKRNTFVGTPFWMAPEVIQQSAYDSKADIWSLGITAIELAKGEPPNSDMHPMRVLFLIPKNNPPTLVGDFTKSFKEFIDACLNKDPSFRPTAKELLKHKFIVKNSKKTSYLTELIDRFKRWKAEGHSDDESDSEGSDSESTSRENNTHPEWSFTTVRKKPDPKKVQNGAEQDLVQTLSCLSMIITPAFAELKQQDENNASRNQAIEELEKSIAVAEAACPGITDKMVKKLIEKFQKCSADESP
Chain of TRAF2 and NCK-interacting protein kinase (Homo sapiens) (Q9UKE5 whole entry, looked up): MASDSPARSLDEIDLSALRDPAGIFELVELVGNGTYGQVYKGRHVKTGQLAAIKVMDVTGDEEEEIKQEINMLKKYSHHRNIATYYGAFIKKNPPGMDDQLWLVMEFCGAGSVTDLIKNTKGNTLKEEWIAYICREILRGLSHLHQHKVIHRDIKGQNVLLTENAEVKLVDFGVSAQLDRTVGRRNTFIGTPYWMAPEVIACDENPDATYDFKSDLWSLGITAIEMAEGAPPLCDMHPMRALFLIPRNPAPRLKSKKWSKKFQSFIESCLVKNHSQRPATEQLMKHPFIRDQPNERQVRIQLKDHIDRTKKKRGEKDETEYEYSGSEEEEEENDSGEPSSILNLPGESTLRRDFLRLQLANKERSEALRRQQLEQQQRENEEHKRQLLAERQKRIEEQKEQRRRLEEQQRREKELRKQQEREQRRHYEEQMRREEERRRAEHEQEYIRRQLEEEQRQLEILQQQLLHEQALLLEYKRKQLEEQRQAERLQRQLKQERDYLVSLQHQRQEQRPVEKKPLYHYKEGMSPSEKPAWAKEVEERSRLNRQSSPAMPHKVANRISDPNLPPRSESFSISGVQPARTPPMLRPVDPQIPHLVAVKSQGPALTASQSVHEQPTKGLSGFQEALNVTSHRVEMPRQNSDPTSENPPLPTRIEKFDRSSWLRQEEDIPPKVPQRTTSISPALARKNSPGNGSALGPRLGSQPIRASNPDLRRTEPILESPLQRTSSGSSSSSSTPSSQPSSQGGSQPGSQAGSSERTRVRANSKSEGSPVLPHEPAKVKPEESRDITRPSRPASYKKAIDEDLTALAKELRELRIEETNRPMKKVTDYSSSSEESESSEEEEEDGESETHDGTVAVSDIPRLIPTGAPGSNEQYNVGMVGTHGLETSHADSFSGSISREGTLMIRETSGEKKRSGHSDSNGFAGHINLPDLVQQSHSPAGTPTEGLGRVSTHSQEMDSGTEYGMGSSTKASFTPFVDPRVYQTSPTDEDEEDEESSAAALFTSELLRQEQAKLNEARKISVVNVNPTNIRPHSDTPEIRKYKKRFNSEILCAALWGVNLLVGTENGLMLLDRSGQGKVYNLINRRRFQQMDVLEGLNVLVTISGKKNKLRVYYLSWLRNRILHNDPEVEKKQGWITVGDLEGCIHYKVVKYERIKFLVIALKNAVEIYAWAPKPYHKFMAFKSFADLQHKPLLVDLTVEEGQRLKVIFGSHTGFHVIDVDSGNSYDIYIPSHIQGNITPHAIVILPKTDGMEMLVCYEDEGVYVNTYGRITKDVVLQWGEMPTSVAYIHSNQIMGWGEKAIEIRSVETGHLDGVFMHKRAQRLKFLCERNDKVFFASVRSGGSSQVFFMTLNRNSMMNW
Chain of Calcium/calmodulin-dependent protein kinase kinase 2 (Q96RR4 2-588 limits assumed): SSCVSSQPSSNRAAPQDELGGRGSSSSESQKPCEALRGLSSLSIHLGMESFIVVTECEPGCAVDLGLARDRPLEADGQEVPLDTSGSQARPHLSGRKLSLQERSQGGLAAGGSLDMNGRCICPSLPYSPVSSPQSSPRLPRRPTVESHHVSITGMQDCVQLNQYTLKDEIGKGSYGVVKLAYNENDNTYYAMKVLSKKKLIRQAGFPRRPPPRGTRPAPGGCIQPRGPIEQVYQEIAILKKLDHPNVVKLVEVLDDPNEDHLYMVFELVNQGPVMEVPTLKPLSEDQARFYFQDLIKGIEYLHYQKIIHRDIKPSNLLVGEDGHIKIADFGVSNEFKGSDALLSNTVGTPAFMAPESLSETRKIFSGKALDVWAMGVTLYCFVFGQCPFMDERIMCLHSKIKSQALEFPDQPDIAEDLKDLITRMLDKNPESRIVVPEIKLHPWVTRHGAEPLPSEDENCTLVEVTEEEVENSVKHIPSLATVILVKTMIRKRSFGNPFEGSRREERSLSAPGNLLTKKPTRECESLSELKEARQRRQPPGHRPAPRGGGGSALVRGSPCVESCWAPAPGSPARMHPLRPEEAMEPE
Chain of Casein kinase I isoform gamma-1 (Homo sapiens) (Q9HCP0 whole entry, looked up, canonical isoform): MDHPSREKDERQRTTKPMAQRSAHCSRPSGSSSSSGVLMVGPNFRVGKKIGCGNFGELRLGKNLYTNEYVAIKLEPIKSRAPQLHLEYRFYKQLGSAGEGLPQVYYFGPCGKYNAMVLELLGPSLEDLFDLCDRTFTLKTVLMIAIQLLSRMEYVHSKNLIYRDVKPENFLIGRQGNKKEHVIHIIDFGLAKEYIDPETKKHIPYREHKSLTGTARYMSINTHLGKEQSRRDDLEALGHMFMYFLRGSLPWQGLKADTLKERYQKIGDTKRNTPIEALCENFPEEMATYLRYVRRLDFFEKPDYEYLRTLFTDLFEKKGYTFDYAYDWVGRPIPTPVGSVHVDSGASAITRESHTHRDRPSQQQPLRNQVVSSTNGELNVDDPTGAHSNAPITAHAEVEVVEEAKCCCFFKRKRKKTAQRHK
Chain of Cyclin-dependent kinase 16 (Homo sapiens) (Q00536 whole entry): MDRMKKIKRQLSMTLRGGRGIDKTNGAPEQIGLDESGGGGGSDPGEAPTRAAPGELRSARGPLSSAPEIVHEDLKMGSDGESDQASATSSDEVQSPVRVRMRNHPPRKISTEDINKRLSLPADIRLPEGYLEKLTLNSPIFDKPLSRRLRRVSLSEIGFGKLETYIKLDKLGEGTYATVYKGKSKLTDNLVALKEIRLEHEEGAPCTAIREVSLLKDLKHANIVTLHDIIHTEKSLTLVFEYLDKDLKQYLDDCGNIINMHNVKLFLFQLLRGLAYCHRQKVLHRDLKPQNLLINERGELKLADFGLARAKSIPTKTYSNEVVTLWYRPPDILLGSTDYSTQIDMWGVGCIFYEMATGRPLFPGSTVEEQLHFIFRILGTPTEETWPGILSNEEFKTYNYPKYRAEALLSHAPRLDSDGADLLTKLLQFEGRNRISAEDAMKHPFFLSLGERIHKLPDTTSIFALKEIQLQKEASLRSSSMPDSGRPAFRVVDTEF
Chain of Ribosomal protein S6 kinase alpha-3 (Homo sapiens) (P51812 whole entry): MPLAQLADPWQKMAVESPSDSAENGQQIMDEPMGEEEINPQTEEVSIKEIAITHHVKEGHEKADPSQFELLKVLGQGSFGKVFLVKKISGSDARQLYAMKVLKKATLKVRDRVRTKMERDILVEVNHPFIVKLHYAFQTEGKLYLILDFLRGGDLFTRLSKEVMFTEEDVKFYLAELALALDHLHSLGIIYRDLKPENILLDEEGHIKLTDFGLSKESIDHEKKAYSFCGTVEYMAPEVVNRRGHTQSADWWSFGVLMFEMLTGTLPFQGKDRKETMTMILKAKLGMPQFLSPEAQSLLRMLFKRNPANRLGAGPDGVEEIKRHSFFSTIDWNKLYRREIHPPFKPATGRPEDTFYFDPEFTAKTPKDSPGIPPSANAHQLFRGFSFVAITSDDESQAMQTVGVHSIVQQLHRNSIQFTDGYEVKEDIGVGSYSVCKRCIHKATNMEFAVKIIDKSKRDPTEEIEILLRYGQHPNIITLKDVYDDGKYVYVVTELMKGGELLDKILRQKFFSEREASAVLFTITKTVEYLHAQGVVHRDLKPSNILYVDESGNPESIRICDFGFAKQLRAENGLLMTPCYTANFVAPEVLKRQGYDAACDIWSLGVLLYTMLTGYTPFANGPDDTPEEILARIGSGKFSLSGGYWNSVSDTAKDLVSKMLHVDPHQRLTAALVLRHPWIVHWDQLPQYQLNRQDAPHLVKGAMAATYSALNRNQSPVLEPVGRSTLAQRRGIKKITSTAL
Chain of Serine/threonine-protein kinase PAK 4 (Homo sapiens) (O96013 whole entry, looked up): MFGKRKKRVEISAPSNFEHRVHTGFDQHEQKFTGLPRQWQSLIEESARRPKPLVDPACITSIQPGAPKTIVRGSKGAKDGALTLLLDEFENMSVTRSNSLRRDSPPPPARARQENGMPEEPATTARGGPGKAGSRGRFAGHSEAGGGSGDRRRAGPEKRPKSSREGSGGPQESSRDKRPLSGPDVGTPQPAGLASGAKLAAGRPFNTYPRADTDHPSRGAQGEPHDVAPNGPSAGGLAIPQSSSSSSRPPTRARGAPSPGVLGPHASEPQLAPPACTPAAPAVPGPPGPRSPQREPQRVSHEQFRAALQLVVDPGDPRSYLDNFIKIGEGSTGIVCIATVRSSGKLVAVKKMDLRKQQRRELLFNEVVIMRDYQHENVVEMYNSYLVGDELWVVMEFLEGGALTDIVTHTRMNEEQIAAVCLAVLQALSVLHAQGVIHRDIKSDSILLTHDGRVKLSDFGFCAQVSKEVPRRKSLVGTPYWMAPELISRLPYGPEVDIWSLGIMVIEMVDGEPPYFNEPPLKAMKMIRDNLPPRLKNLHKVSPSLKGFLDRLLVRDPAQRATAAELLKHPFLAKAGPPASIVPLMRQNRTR

Regarding `O=C1C(Cl)=C(N2C(=O)CCC2=O)C(=O)c2ccccc21`, the ΔTm (usually the change in melting temperature against a reference sample) was -2.5 °C in test [1]; 0.4 °C in test [2]; -1.4 °C in test [3]; 1.2 °C in test [4]; -1.1 °C in [5]; -0.9 °C in [6]. Also, the ΔTm was 0.7 °C in test [7]; -0.4 °C in test [8]; -1.7 °C in [9]; -2.4 °C in [10]; -2.4 °C in test [11].
In the case of `O=C(O)c1cc(N(Cc2ccccc2O)Cc2cc(O)ccc2O)ccc1O` [LAVENDUSTIN A], the ΔTm in test [1] came to 0.5 °C; in test [2] it was 0 °C; in test [3], 2.1 °C; in [4], 0.5 °C; in [5], 0.2 °C; in test [6], 0.9 °C. In addition, the ΔTm in test [7] worked out at 1.4 °C; in test [8], 0.1 °C; in test [9], 0.4 °C; in test [10] it was 0 °C; in test [11] it was 1.7 °C.
As for `c1ccc(-c2n[nH]c3c2oc2ccccc23)cc1`, the shift in melting temperature (ΔTm) in test [1] is 2.5 °C; in test [2] it was -0.2 °C; in [3] it was 0.6 °C; in [4], -0.2 °C; in [5], 1.4 °C; in test [6], 0 °C. Besides, the ΔTm is 0.8 °C in test [7]; -0.3 °C in [8]; -1.3 °C in test [9]; 0.4 °C in [10]; 1.1 °C in [11].
In the case of `CC(C)c1nn(-c2c(Cl)cccc2Cl)c2nc(Cc3ccc(OCCO)cc3)[nH]c(=O)c12`, the ΔTm in [1] was 1.7 °C; in [2], -0.6 °C; in [3], -0.3 °C; in test [4], -3.4 °C; in test [5], 1 °C; in [6] it was -1.2 °C. Besides, the ΔTm is 0.1 °C in [7]; 2.2 °C in test [8]; -0.4 °C in test [9]; 0 °C in test [10]; 3.5 °C in [11].
As for `O=C1NC(=O)C(c2cn(CCCn3ccnc3)c3ccccc23)=C1Nc1ccccc1`, the ΔTm in [1] is 3.8 °C; in [2] it was 0.6 °C; in test [3], 2 °C; in test [4], -0.7 °C; in test [5], 0.6 °C; in test [6], 4.5 °C. In addition, the ΔTm in test [7] was 0.6 °C; in [8], 0.7 °C; in test [9], -0.3 °C; in [10], -0.7 °C; in test [11], 6.3 °C.
Consider `CC(=O)O/N=C1/C(=C2/C(=O)Nc3cc(Br)ccc32)Nc2ccccc21` [6-BROMOINDIRUBIN-3'-ACETOXIME], for which the ΔTm is -1.7 °C in test [1]; 2.1 °C in test [2]; -0.4 °C in test [3]; 4.6 °C in test [4]; -0.2 °C in test [5]; 0.7 °C in test [6]. Besides, the ΔTm in test [7] amounted to 0.6 °C; in [8], 2.2 °C; in [9], 1.1 °C; in test [10] it was 0.4 °C; in test [11] it was 4.5 °C.
As for `COc1cc2ncnc(Nc3ccc(NC(=O)c4ccccc4)cc3)c2cc1OC` [ANILINOQUINAZOLINE1], the ΔTm in test [1] was 1.3 °C; in [2], -1.4 °C; in test [3], 1.8 °C; in test [4], 0.9 °C; in test [5], 0.1 °C; in test [6], 1.1 °C. Further, the ΔTm was found to be 1.1 °C in [7]; 0 °C in [8]; 6.2 °C in test [9]; 0.9 °C in test [10]; 9.4 °C in test [11].
Turning to `CCOC(=O)c1c(C)[nH]c(/C=C2\C(=O)Nc3ccccc32)c1C`, the ΔTm in [1] is 1.4 °C; in test [2], -0.2 °C; in test [3] it was 0.1 °C; in test [4], -0.4 °C; in test [5], -1.4 °C; in test [6], 0.5 °C. The ΔTm is -11.4 °C in test [7]; 0.9 °C in [8]; 0.3 °C in [9]; 0.4 °C in test [10]; 0.1 °C in test [11].
As to `COc1cc(/C=C/C(=O)CC(=O)/C=C/c2ccc(O)c(OC)c2)ccc1O` [CURCUMIN], the ΔTm was determined as 6.1 °C in [1]; 0.7 °C in test [2]; 1.7 °C in test [3]; 2.1 °C in test [4]; 3.1 °C in test [5]; 1.5 °C in [6]. Also, the ΔTm in test [7] stood at 4.5 °C; in [8] it was 3 °C; in test [9], 6.9 °C; in test [10], 5.9 °C; in test [11], 3 °C.
For the compound `O=C1c2ccccc2-[n+]2ccc3c([nH]c4ccccc43)c21` [FASCAPLYSIN CHLORIDE], the ΔTm in [1] was -2.1 °C; in [2], -0.6 °C; in [3], -0.8 °C; in test [4], 0.7 °C; in test [5], -2.6 °C; in [6], -0.9 °C. Besides, the ΔTm was -0.6 °C in [7]; -0.6 °C in [8]; 0 °C in test [9]; -0.9 °C in test [10]; 0.7 °C in [11].
Turning to `CC(C)(C)n1nc(-c2ccc(Cl)cc2)c2c(N)ncnc21`, the ΔTm in [1] was 1 °C; in [2] it was -0.5 °C; in [3], -0.5 °C; in test [4], 0 °C; in test [5] it was 0.3 °C; in test [6], 0.6 °C. Besides, the ΔTm in [7] came to 1 °C; in test [8] it was 1 °C; in [9] it was 0.7 °C; in [10] it was 1.4 °C; in test [11] it was 0.4 °C.
